Source: US6514747B2 (UT-Battelle, LLC, priority 1993, dated 2003)

Key:
untransfected 293 cells = test: adenylyl cyclase assay in untransfected 293 cells; type: cell-based, human; conditions: untransfected 293 cells
Procedure: 293 cells (5×10^5) and 293 cells expressing human TSH-R were preloaded with 5 μCi ^3H-adenine for 1.5 h at 37° C. in a 5% CO2 incubator.
Medium was aspirated and 2.5% perchloric acid containing 0.1 mM cAMP was used to stop the incubation. Adenylyl cyclase activity was calculated by determining the percent conversion of ^3H-adenine to ^3H-cAMP as described (Salomon, 1991; Johnson and Salomon, 1991). Correlation of cAMP accumulation measured in this assay with actual adenylyl cyclase activity is made under the assumption that isobutymethylxanthine effectively blocks cAMP degradation. Data represent means and standard deviations from triplicate data points.

3T3-L1 adipocytes = test: lipogenesis in 3T3-L1 adipocytes (FAS and SCD mRNA, FAS activity, triglyceride content); type: cell-based; conditions: nitrendipine alone
L6 skeletal myocytes = test: [Ca2+]i in L6 skeletal myocytes (fura 2); type: cell-based
[1] = test system: aP212 and aP273 transgenic mice; test: daily insulin injections in aP2-agouti transgenic mice; type: in vivo, mouse
Procedure: All mice were maintained at Oak Ridge National Laboratory. The FVB/N mice were obtained from random-bred stock. All mice were fed a diet containing 11% fat by weight (Mouse Diet 5015; Purina), weaned at 4 wk of age, and subsequently weighed monthly. Food and water were obtained from ad libitum. All data are from mice that are hemizygous for the transgene.
Plasma and serum were obtained by retro-orbital sinus puncture from nonfasted mice between 9 am and 11 am. Plasma insulin levels were measured by radioimmunoassay (ICN) with porcine insulin as a standard. Blood glucose concentrations were determined by blood sampling from the tail vein followed by quantification via One-Touch™ glucose determination system (Johnson & Johnson).
Six- to ten-wk-old male mice were subcutaneously injected between 11 am and noon with Humulin U ultralente (Eli Lilly, Indianapolis, Ind.) at a daily dose of 0.5, 1, or 2 units/day per mouse. Insulin (100 units/ml) was diluted before injection with phosphate-buffered saline so that all mice received a 200-μl injection. A 1-ml syringe was filled with […] of the diluted insulin solution. To keep the insulin suspension as uniform as possible, it was mixed between each injection via plunger action.

[2] = test system: isolated human adipocytes; test: [Ca2+]i in isolated human adipocytes; type: cell-based
[3] = target: T1, human melanocortin 1 receptor (hMC1R) (Homo sapiens, UniProt Q01726); test: [Ca2+]i in HEK-293 cells transfected with hMC1R; type: cell-based; conditions: 20 nM agouti, n = 8
T1 construct: The coding region of the human melanocortin 1, 3, and 5 receptor (hMC1R, hMC3R, and hMC5R) genes was amplified; expressed in transfected cells; host or cells: HEK-293 cells, cotransfected with pMT4 construct and pRSV-Neo, geneticin-selected clones
Procedure: The coding region of the human melanocortin 1, 3, and 5 receptor (hMC1R, hMC3R, and hMC5R) genes was amplified by polymerase chain reaction and subcloned into the vector pMT4, and the sequence was verified. HEK-293 cells, which appear to lack endogenous melanocortin receptors (Lu et al., 1994), were cotransfected with pMT4 and pRSV-Neo by either calcium phosphate coprecipitation method or the use of Transfectam reagent (Promega). Clones were selected using 600 μg geneticin/ml. culture medium.
[Ca^2+]i was measured in L6, A7r5, and HEK-293 cells (Zemel et al., 1995) as previously described and in 3T3-L1 cells as described by Klip and Ramlal (1987). Monolayers of nonfused L6 cells and confluent A7r5 cells after 14-16 h of starvation in a serum-free culture medium were rinsed with Hanks' balanced salt solution (HBSS), detached by incubation in 2 ml trypsin (0.05%) for 2-3 min at 37° C., and released by pipetting without trypsinization. Cells were harvested by centrifugation at 50 g and resuspended in 1 ml HBSS at a density of ˜10^6 cells/ml. For 3T3-L1 cells, monolayers of differentiated adipocytes were rinsed with serum-free DMEM and exposed to 0.05% trypsin for 3 min. The solution was decanted, and the cells were incubated for 3 min in culture medium. Cells were detached by pipetting and collected by centrifugation at 50 g. Cells were then incubated in culture medium to recover for 1 h followed by incubation in serum-free DMEM for 4 h at 37° C. in an atmosphere of 5% CO2, collected by centrifugation, and resuspended in HBSS at a density of ˜10^6 cells/ml. Cell suspensions were chilled on ice for 5 min and loaded with […] (final concn) fura 2 acetoxymethyl ester (AM; Sigma) in the dark for 20 min at 37° C. For 3T3-L1 adipocytes, the chilling step was skipped. […] [Ca^2+]i levels were then measured fluorometrically in suspensions using dual excitation (340 and 380 nm)-single emission (510 nm) fluorometry as previously described (Zemel et al., 1995). [Ca^2+]i was then calculated by the computer in the fluorometer with the equation of Grynkiewicz et al. (1985). […]

[4] = target: T2, human melanocortin 3 receptor (hMC3R) (Homo sapiens, UniProt P41968); test: [Ca2+]i in HEK-293 cells transfected with hMC3R; type: cell-based; conditions: 20 nM agouti, n = 8
T2 construct: The coding region of the human melanocortin 1, 3, and 5 receptor (hMC1R, hMC3R, and hMC5R) genes was amplified; expressed in transfected cells; host or cells: HEK-293 cells, cotransfected with pMT4 construct and pRSV-Neo, geneticin-selected clones
T2 sequence (P41968 whole entry): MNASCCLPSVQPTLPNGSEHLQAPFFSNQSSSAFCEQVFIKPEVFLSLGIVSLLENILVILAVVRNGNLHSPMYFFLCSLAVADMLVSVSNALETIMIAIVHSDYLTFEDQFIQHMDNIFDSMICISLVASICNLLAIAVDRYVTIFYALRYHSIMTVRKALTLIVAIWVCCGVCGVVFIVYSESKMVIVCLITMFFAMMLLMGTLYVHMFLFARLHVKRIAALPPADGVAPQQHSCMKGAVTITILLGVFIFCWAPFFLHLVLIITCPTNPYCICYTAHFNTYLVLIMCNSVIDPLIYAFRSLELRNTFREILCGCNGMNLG
Procedure: [Ca^2+]i was measured in L6, A7r5, and HEK-293 cells (Zemel et al., 1995) as previously described and in 3T3-L1 cells as described by Klip and Ramlal (1987). Monolayers of nonfused L6 cells and confluent A7r5 cells after 14-16 h of starvation in a serum-free culture medium were rinsed with Hanks' balanced salt solution (HBSS), detached by incubation in 2 ml trypsin (0.05%) for 2-3 min at 37° C., and released by pipetting without trypsinization. Cells were harvested by centrifugation at 50 g and resuspended in 1 ml HBSS at a density of ˜10^6 cells/ml. For 3T3-L1 cells, monolayers of differentiated adipocytes were rinsed with serum-free DMEM and exposed to 0.05% trypsin for 3 min. The solution was decanted, and the cells were incubated for 3 min in culture medium. Cells were detached by pipetting and collected by centrifugation at 50 g. Cells were then incubated in culture medium to recover for 1 h followed by incubation in serum-free DMEM for 4 h at 37° C. in an atmosphere of 5% CO2, collected by centrifugation, and resuspended in HBSS at a density of ˜10^6 cells/ml. […] [Ca^2+]i levels were then measured fluorometrically in suspensions using dual excitation (340 and 380 nm)-single emission (510 nm) fluorometry as previously described (Zemel et al., 1995). [Ca^2+]i was then calculated by the computer in the fluorometer with the equation of Grynkiewicz et al. (1985). […]

T1 sequence (Q01726 whole entry): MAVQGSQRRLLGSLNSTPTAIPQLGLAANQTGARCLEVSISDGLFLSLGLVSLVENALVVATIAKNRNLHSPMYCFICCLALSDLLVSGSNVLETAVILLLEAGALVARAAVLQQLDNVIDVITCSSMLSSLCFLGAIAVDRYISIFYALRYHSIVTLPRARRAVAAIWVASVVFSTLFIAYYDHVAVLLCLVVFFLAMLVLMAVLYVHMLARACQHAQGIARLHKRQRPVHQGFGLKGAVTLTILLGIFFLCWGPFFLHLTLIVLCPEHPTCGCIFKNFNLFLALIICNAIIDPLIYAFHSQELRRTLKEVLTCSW

In the case of “α-melanocyte-stimulating hormone [α-MSH, reference compound]”, the “effect on the cAMP pathway” value (untransfected 293 cells) is reported as “no effect”.

In the case of CCOC(=O)C1=C(C)NC(C)=C(C(=O)OC)C1c1cccc([N+](=O)[O-])c1 (stereo not drawn) [nitrendipine, reference compound], the “effect on FAS activity or triglyceride content” value (3T3-L1 adipocytes) is reported as “no effect”, the “reduction of [Ca2+]i response to 50 nM agouti” value (L6 skeletal myocytes; 30 μM nitrendipine) is reported as about 50% and the “[Ca2+]i response to 50 nM agouti” value (L6 skeletal myocytes; with 30 μM nitrendipine) is reported as 22 ± 6 nM.

In the case of “insulin: Humulin U ultralente (Eli Lilly), injected subcutaneously”, the “time for blood glucose levels to return to normal after insulin injection” value ([1]; 1 unit per mouse s.c., aP212 mice and littermates) is reported as at most 24 h and the “average rate of weight gain, insulin-injected transgenic mice vs control mice” value ([1]; 2 units of insulin per day per mouse s.c., 7 days) is reported as 1.7 fold.

B1: human agouti: recombinant human agouti protein (132 amino acids, SEQ ID NO:4) produced in baculovirus-infected T. ni cells (protein)
chain: MDVTRLLLATLLVFLCFFTANSHLPPEEKLRDDRSLRSNSSVNLLDVPSVSIVALNKKSKQIGRKAAEKKRSSKKEASMKKVVRPRTPLSAPCVATRNSCKPPAPACCDPCASCQCRFFRSACSCRVLSLNC
modifications: Homo sapien
With B1 the “[Ca2+]i” value [2] was “stimulate an increase”, the “[Ca2+]i Increase over Baseline” value [3] was 57 ± 9 and the “[Ca2+]i Increase over Baseline” value [4] was 77 ± 14.
